From patent EP0908457B1, “3-(1,2-benzisothiazol- and isoxazol-5-Y1)-2,4(1H,3H)-pyrimidinedione or thione and 3-(1,2-benzisothiazol- and isoxazol-5-y1)-4(3H)-pyrimidinone or thione herbicidal agents” (BASF AKTIENGESELLSCHAFT, priority 1997, dated 1999)

Tests used:
[1] = tested on: Echinochloa oryzoides (Ard.) Fritsch.; assay: Preemergence weed control under flooded paddy conditions, ECHORC (Watergrass (Calif.)); type: in vivo; settings: preemergence weeds, flooded paddy, rated three to four weeks after treatment
Cyperus iria = assay: Preemergence weed control under flooded paddy conditions, CYPIR (Rice Flatsedge); type: in vivo; settings: preemergence weeds, flooded paddy, rated three to four weeks after treatment
[2] = tested on: Cyperus serotinus, Rottb.; assay: Preemergence weed control under flooded paddy conditions, CYPSE (Flatsedge); type: in vivo; settings: preemergence weeds, rated three to four weeks after treatment
[3] = tested on: Monochoria vaginalis, Presl.; assay: Preemergence weed control under flooded paddy conditions, MOOVA (Monochoria); type: in vivo; settings: preemergence weeds, flooded paddy, rated three to four weeks after treatment
Sagittaria pygmaea, L. = assay: Preemergence weed control under flooded paddy conditions, SAGPY (Arrowhead (Pygmaea)); type: in vivo; settings: preemergence weeds, flooded paddy, rated three to four weeks after treatment
[4] = tested on: Oryza sativa, (L.) Tebonnet; assay: Rice tolerance to post-transplant applications under flooded paddy conditions (Example 187), ORYSAT (Rice, Tebonnet); settings: rated three to four weeks after treatment
Note: meaning of each grade not given here.

Row | SMILES | herbicidal effect rating, ECHORC ([1]; Rate 0.0320 kg/ha) | herbicidal effect rating, ECHORC ([1]; Rate 0.0620 kg/ha) | herbicidal effect rating, ECHORC ([1]; Rate 0.1250 kg/ha) | herbicidal effect rating, ECHORC ([1]; Rate 0.2500 kg/ha) | herbicidal effect rating, CYPIR (Cyperus iria; Rate 0.0320 kg/ha) | herbicidal effect rating, CYPIR (Cyperus iria; Rate 0.0620 kg/ha) | herbicidal effect rating, CYPIR (Cyperus iria; Rate 0.1250 kg/ha) | herbicidal effect rating, CYPIR (Cyperus iria; Rate 0.2500 kg/ha) | herbicidal effect rating, CYPSE ([2]; Rate 0.0320 kg/ha) | herbicidal effect rating, CYPSE ([2]; Rate 0.0620 kg/ha) | herbicidal effect rating, CYPSE ([2]; Rate 0.1250 kg/ha) | herbicidal effect rating, CYPSE ([2]; Rate 0.2500 kg/ha) | herbicidal effect rating, MOOVA ([3]; Rate 0.0320 kg/ha) | herbicidal effect rating, MOOVA ([3]; Rate 0.0620 kg/ha) | herbicidal effect rating, MOOVA ([3]; Rate 0.1250 kg/ha) | herbicidal effect rating, MOOVA ([3]; Rate 0.2500 kg/ha) | herbicidal effect rating, SAGPY (Sagittaria pygmaea, L.; Rate 0.0320 kg/ha) | herbicidal effect rating, SAGPY (Sagittaria pygmaea, L.; Rate 0.0620 kg/ha) | herbicidal effect rating, SAGPY (Sagittaria pygmaea, L.; Rate 0.1250 kg/ha) | herbicidal effect rating, SAGPY (Sagittaria pygmaea, L.; Rate 0.2500 kg/ha) | further results
1 | Cn1c(C(F)(F)F)cc(=O)n(-c2ccc3snc(C(=O)Oc4ccccc4)c3c2)c1=O [Example 319, 1,2-Benzisothiazole-3-carboxylic acid, 5-[3,6-dihydro-3-methyl-2,6-dioxo-4-(trifluoromethyl)-1(2H)-pyrimidinyl]-, phenyl ester] | 3.0 | 7.0 | 9.0 | 9.0 | 3.0 | 9.0 | 9.0 | 9.0 | 4.0 | 6.0 | 6.0 | 6.0 | 9.0 | 9.0 | 9.0 | 9.0 | 6.0 | 6.0 | 9.0 | 9.0 | herbicidal effect rating ORYSAT ([4]; Rate 0.0320 kg/ha): 5.0; herbicidal effect rating ORYSAT ([4]; Rate 0.0620 kg/ha): 6.0; herbicidal effect rating ORYSAT ([4]; Rate 0.1250 kg/ha): 6.0; herbicidal effect rating ORYSAT ([4]; Rate 0.2500 kg/ha): 7.0
2 | Cn1c(C(F)(F)F)cc(=O)n(-c2ccc3snc(C(N)=O)c3c2)c1=O [Example 322, 1,2-Benzisothiazole-3-carboxamide, 5-[3,6-dihydro-3-methyl-2,6-dioxo-4-(trifluoromethyl)-1(2H)-pyrimidinyl]-] | 9.0 | 9.0 | 9.0 | 9.0 | 4.0 | 6.0 | 7.0 | 9.0 | 5.0 | 5.0 | 6.0 | 9.0 | 5.0 | 9.0 | 9.0 | 9.0 | 3.0 | 3.0 | 3.0 | 9.0 | herbicidal effect rating ORYSAT ([4]; Rate 0.0320 kg/ha): 5.0; herbicidal effect rating ORYSAT ([4]; Rate 0.0620 kg/ha): 5.0; herbicidal effect rating ORYSAT ([4]; Rate 0.1250 kg/ha): 5.0; herbicidal effect rating ORYSAT ([4]; Rate 0.2500 kg/ha): 7.0
3 | Cn1c(C(F)(F)F)cc(=O)n(-c2ccc3snc(C(=O)NS(C)(=O)=O)c3c2)c1=O [Example 323, 1,2-Benzisothiazole-3-carboxamide, 5-[3,6-dihydro-3-methyl-2,6-dioxo-4-(trifluoromethyl)-1(2H)-pyrimidinyl]-N-(methylsulfonyl)-] | 4.5 | 6.5 | 8.0 | 8.0 | 3.5 | 4.5 | 8.0 | 8.0 | 5.0 | 6.0 | 6.5 | 7.5 | 8.0 | 9.0 | 9.0 | 9.0 | 0.0 | 3.5 | 3.5 | 9.0 | herbicidal effect rating ORYSAT ([4]; Rate 0.0320 kg/ha): 3.5; herbicidal effect rating ORYSAT ([4]; Rate 0.0620 kg/ha): 5.0; herbicidal effect rating ORYSAT ([4]; Rate 0.1250 kg/ha): 6.0; herbicidal effect rating ORYSAT ([4]; Rate 0.2500 kg/ha): 7.5
4 | Cn1c(C(F)(F)F)cc(=O)n(-c2ccc3snc(C(=O)NS(=O)(=O)CCl)c3c2)c1=O [Example 324, 1,2-Benzisothiazole-3-carboxamide, N-[(chloromethyl)sulfonyl]-5-[3,6-dihydro-3-methyl-2,6-dioxo-4-(trifluoromethyl)-1(2H)-pyrimidinyl]-] | 0.0 | 4.0 | 5.0 | 6.0 | 9.0 | 9.0 | 9.0 | 9.0 | 0.0 | 0.0 | 3.0 | 7.0 | 9.0 | 9.0 | 9.0 | 9.0 | 0.0 | 3.0 | 9.0 | 9.0 | herbicidal effect rating ORYSAT ([4]; Rate 0.0320 kg/ha): 3.0; herbicidal effect rating ORYSAT ([4]; Rate 0.0620 kg/ha): 4.0; herbicidal effect rating ORYSAT ([4]; Rate 0.1250 kg/ha): 7.0; herbicidal effect rating ORYSAT ([4]; Rate 0.2500 kg/ha): 9.0
5 | COC(=O)C(C)Oc1cccc(-c2nsc3ccc(-n4c(=O)cc(C(F)(F)F)n(C)c4=O)cc23)c1 (stereo not drawn) [Example 325, Propionic acid, 2-{m-{5-[3,6-dihydro-3-methyl-2,6-dioxo-4-(trifluoromethyl)-1-(2H)-pyrimidinyl]-1,2-benzisothiazol-3-yl}phenoxy}-, methyl ester] | 7.7 | 9.0 | 9.0 | 9.0 | 8.0 | 8.7 | 9.0 | 9.0 | 4.7 | 9.0 | 7.3 | 9.0 | 8.0 | 9.0 | 9.0 | 9.0 | 4.0 | 4.3 | 6.3 | 9.0 | herbicidal effect rating ORYSAT ([4]; Rate 0.0320 kg/ha): 2.7; herbicidal effect rating ORYSAT ([4]; Rate 0.0620 kg/ha): 3.0; herbicidal effect rating ORYSAT ([4]; Rate 0.1250 kg/ha): 3.7; herbicidal effect rating ORYSAT ([4]; Rate 0.2500 kg/ha): 4.0
6 | C#CCOC(=O)COc1cccc(-c2nsc3ccc(-n4c(=O)cc(C(F)(F)F)n(C)c4=O)cc23)c1 [Example 326, Acetic acid, {m-{5-[3,6-dihydro-3-methyl-2,6-dioxo-4-(trifluoromethyl)-1(2H)-pyrimidinyl]-1,2-benzisothiazol-3-yl}phenoxy}-, 2-propynyl ester] | 5.5 | 8.5 | 9.0 | 9.0 | 6.0 | 7.0 | 7.0 | 9.0 | 4.0 | 4.5 | 4.5 | 7.5 | 9.0 | 9.0 | 9.0 | 9.0 | 0.0 | 1.0 | 5.5 | 9.0 | herbicidal effect rating ORYSAT ([4]; Rate 0.0320 kg/ha): 5.5; herbicidal effect rating ORYSAT ([4]; Rate 0.0620 kg/ha): 5.5; herbicidal effect rating ORYSAT ([4]; Rate 0.1250 kg/ha): 5.5; herbicidal effect rating ORYSAT ([4]; Rate 0.2500 kg/ha): 5.5
